SMILES strings stand for the structures. ≈ marks a conversion by molar mass, not a printed value.

For one assay, the system named is Candida albicans. Kind of assay: In vitro antifungal activity test (MIC), Candida albicans. It counts as cell-based. As to conditions: Candida albicans; concentration at which growth is inhibited by 80% vs negative control; 35° C., 24 hours, RPMI 1640, alama blue. As to the method: (§1) The antifungal activities of the compounds of the present invention were evaluated using Candida albicans as yeast fungus, and Aspergillus fumigatus as a filamentous fungus. The above fungi used were all purchased from American Type Culture Collection (ATCC). The strains used in the experiment were inoculated into a Sabouraud dextrose agar medium, and then cultured at 35° C. for a sufficient period of time, e.g., 24 hours for Candida albicans, and about 7 days for Aspergillus fumigatus. As for Candida albicans, about 5 to 7 single colonies were taken from the cultured medium, sufficiently suspended in 1 ml of 0.85% sterile saline solution, and adjusted to have an optical density of 0.095 to 0.107 at 530 nm. A preparation of a strain diluent was diluted in Roswell park memorial institute (RPMI) 1640 medium at a 1:10 ratio, and the resultant was diluted again at a 1:100 ratio to obtain an inoculation preparation for Candida albicans with a concentration of 1.0×10^3 to 5.0×10^3 CFU/mL. As for Aspergillus fumigatus, the cultured Sabouraud dextrose agar was added with 1 mL of 0.2% Tween 20 diluted with 0.85% sterile saline solution, and then the plate was shaken to detach conidium from the plate. The solution collected from the plate surface was transferred into a sterile tube, and placed at room temperature for 5 minutes to deposit heavy substances. The resulting supernatant was transferred into the sterile tube, sufficiently suspended for about 15 seconds, and prepared a strain diluent with a concentration of 0.4×10^6 to 5.0×10^6 CFU/mL using a hemocytometer. The thus prepared strain diluent was diluted in RPMI 1640 medium at a 1:100 ratio to obtain an inoculation preparation for Aspergillus fumigatus. Candida albicans was cultured at 35° C. for 24 hours and Aspergillus fumigatus was cultured at 35° C. for 48 hours, and the concentrations, at which growth is inhibited by 80% or 50% compared to a negative control group, were determined using alama blue color developing reagent. All experiments were repeated twice for each concentration, and the results of antifungal activities (MIC80 MIC50 μg/mL) are shown in Tables 1 to 2.
As a reminder, the MIC80 is an inhibitory concentration at the 80% level, which refers to growth in some studies and to a panel of isolates in others. Read a high MIC80 as weaker potency. The molecule `Cn1cc(C(=O)NNc2ccccc2F)ccc1=O` [Example 1, N′-(2-fluorophenyl)-1-methyl-6-oxo-1,6-dihydropyridine-3-carbohydrazide] displayed an MIC80 of 0.05 µg/mL (≈ 0.191 µM).
In turn, `Cn1cc(C(=O)NNc2ccc(S(=O)(=O)C(F)(F)F)cc2)ccc1=O` [Example 10, 1-methyl-6-oxo-N′-(4-((trifluoromethyl)sulfonyl)phenyl)-1,6-dihydropyridine-3-carbohydrazide] showed an MIC80 of 0.04 µg/mL (≈ 0.107 µM).
Regarding `O=C(NNc1cccc(F)c1)c1ccc(=O)n(Cc2ccc(C(F)(F)F)nc2)c1` [Example 50, N′-(3-fluorophenyl)-6-oxo-1-((6-(trifluoromethyl)pyridine-3-yl)methyl)-1,6-dihydropyridine-3-carbohydrazide], the MIC80 amounted to 0.08 µg/mL (≈ 0.197 µM).
On the same count and under the same terms, as for `O=C(NNc1ccc(F)cc1)c1ccc(=O)n(Cc2ccc(C(F)(F)F)nc2)c1` [Example 51, N′-(4-fluorophenyl)-6-oxo-1-((6-(trifluoromethyl)pyridine-3-yl)methyl)-1,6-dihydropyridine-3-carbohydrazide], the figure is 0.16 µg/mL (≈ 0.394 µM); as for `O=C(NNc1ccc(F)c(F)c1)c1ccc(=O)n(Cc2ccc(C(F)(F)F)nc2)c1` [Example 52, N′-(3,4-difluorophenyl)-6-oxo-1-((6-(trifluoromethyl)pyridine-3-yl)methyl)-1,6-dihydropyridine-3-carbohydrazide], 0.08 µg/mL (≈ 0.189 µM).
The molecule `O=C(NNc1cccc(F)c1)c1ccc(=O)n(CCN2CCN(c3ccc(C(F)(F)F)cc3)CC2)c1` [Example 55, N′-(3-fluorophenyl)-6-oxo-1-(2-(4-(4-(trifluoromethyl)phenyl)piperazin-1-yl)ethyl)-1,6-dihydropyridine-3-carbohydrazide] displayed an MIC80 of 0.2 µg/mL (≈ 0.397 µM).
As to `O=C(NNc1ccc(F)cc1)c1ccc(=O)n(CCN2CCN(c3ccc(C(F)(F)F)cc3)CC2)c1` [Example 56, N′-(4-fluorophenyl)-6-oxo-1-(2-(4-(4-(trifluoromethyl)phenyl)piperazin-1-yl)ethyl)-1,6-dihydropyridine-3-carbohydrazide], the MIC80 was 0.79 µg/mL (≈ 1.57 µM).
`O=C(NNc1cccc(F)c1)c1ccc(=O)n(CCc2cccc(Cl)c2)c1` [Example 57, 1-(3-chlorophenethyl)-N′-(3-fluorophenyl)-6-oxo-1,6-dihydropyridine-3-carbohydrazide] came in with an MIC80 of 0.08 µg/mL (≈ 0.207 µM).
Consider `O=C(NNc1cccc(F)c1)c1ccc(=O)n(CCc2ccc(Cl)cc2)c1` [Example 58, 1-(4-chlorophenethyl)-N′-(3-fluorophenyl)-6-oxo-1,6-dihydropyridine-3-carbohydrazide], for which the MIC80 came to 0.08 µg/mL (≈ 0.207 µM).
The same measure, in the same setting: to `O=C(NNc1cccc(F)c1)c1ccc(=O)n(CCc2ccccc2F)c1` [Example 59, 1-(2-fluorophenethyl)-N′-(3-fluorophenyl)-6-oxo-1,6-dihydropyridine-3-carbohydrazide] belongs 0.14 µg/mL (≈ 0.379 µM).
Molecule `O=C(NNc1cccc(F)c1)c1ccc(=O)n(CCc2ccc(F)cc2)c1` [Example 60, 1-(4-fluorophenethyl)-N′-(3-fluorophenyl)-6-oxo-1,6-dihydropyridine-3-carbohydrazide] yielded an MIC80 of 0.14 µg/mL (≈ 0.379 µM).
The same measure, in the same setting: to `O=C(NNc1cccc(F)c1)c1ccc(=O)n(CCOc2ccccc2F)c1` [Example 61, 1-(2-(2-fluorophenoxy)ethyl)-N′-(3-fluorophenyl)-6-oxo-1,6-dihydropyridine-3-carbohydrazide] belongs 0.08 µg/mL (≈ 0.208 µM); to `O=C(NNc1cccc(F)c1)c1ccc(=O)n(CCOc2ccc(Cl)cc2)c1` [Example 62, 1-(2-(4-chlorophenoxy)ethyl)-N′-(3-fluorophenyl)-6-oxo-1,6-dihydropyridine-3-carbohydrazide], 0.16 µg/mL (≈ 0.398 µM); to `O=C(NNc1cccc(F)c1)c1ccc(=O)n(CCOc2cccc(C(F)(F)F)c2)c1` [Example 63, N′-(3-fluorophenyl)-6-oxo-1-(2-(3-(trifluoromethyl)phenoxy)ethyl)-1,6-dihydropyridine-3-carbohydrazide], 0.09 µg/mL (≈ 0.207 µM).
The molecule `O=C(NNc1cccc(F)c1)c1ccc(=O)n(CCOc2ccc(Cl)cc2Cl)c1` [Example 64, 1-(2-(2,4-dichlorophenoxy)ethyl)-N′-(3-fluorophenyl)-6-oxo-1,6-dihydropyridine-3-carbohydrazide] had an MIC80 of 0.09 µg/mL (≈ 0.206 µM).
For the molecule `O=C(NNc1cccc(F)c1)c1ccc(=O)n(CCOc2ccc(F)cc2)c1` [Example 65, 1-(2-(4-fluorophenoxy)ethyl)-N′-(3-fluorophenyl)-6-oxo-1,6-dihydropyridine-3-carbohydrazide], the MIC80 was 0.08 µg/mL (≈ 0.208 µM).
`O=C(NNc1cccc(F)c1)c1ccc(=O)n(CC2CCCCC2)c1` [Example 66, 1-(cyclohexylmethyl)-N′-(3-fluorophenyl)-6-oxo-1,6-dihydropyridine-3-carbohydrazide]: the MIC80 was found to be 0.27 µg/mL (≈ 0.786 µM).
`O=C(NNc1ccc(F)cc1)c1ccc(=O)n(CC2CCCCC2)c1` [Example 67, 1-(cyclohexylmethyl)-N′-(4-fluorophenyl)-6-oxo-1,6-dihydropyridine-3-carbohydrazide] returned an MIC80 of 0.27 µg/mL (≈ 0.786 µM).
The molecule `O=C(Cn1cc(C(=O)NNc2cccc(F)c2)ccc1=O)c1ccc(C(F)(F)F)cc1` [Example 68, N′-(3-fluorophenyl)-6-oxo-1-(2-oxo-2-(4-(trifluoromethyl)phenyl)ethyl)-1,6-dihydropyridine-3-carbohydrazide] registered an MIC80 of 0.34 µg/mL (≈ 0.785 µM).
Still for that read-out and setting: to `O=C(Cn1cc(C(=O)NNc2ccc(F)cc2)ccc1=O)c1ccc(C(F)(F)F)cc1` [Example 69, N′-(4-fluorophenyl)-6-oxo-1-(2-oxo-2-(4-(trifluoromethyl)phenyl)ethyl)-1,6-dihydropyridine-3-carbohydrazide] belongs 0.68 µg/mL (≈ 1.57 µM).
Molecule `O=C(Cn1cc(C(=O)NNc2ccc(F)c(F)c2)ccc1=O)c1ccc(C(F)(F)F)cc1` [Example 70, N′-(3,4-difluorophenyl)-6-oxo-1-(2-oxo-2-(4-(trifluoromethyl)phenyl)ethyl)-1,6-dihydropyridine-3-carbohydrazide] came in with an MIC80 of 0.09 µg/mL (≈ 0.199 µM).
The molecule `O=C(Cn1cc(C(=O)NNc2cccc(F)c2)ccc1=O)Nc1ccc(C(F)(F)F)cc1` [Example 71, 2-(5-(2-(3-fluorophenyl)hydrazinecarbonyl)-2-oxopyridine-1(2H)-yl)-N-(4-(trifluoromethyl)phenyl)acetamide] registered an MIC80 of 0.04 µg/mL (≈ 0.0892 µM).
With `O=C(Cn1cc(C(=O)NNc2ccc(F)cc2)ccc1=O)Nc1ccc(C(F)(F)F)cc1` [Example 72, 2-(5-(2-(4-fluorophenyl)hydrazinecarbonyl)-2-oxopyridine-1(2H)-yl)-N-(4-(trifluoromethyl)phenyl)acetamide], the MIC80 was 0.09 µg/mL (≈ 0.201 µM).
In turn, `O=C(NNc1cccc(F)c1)c1ccc(=O)n(CCN2CCOCC2)c1` [Example 73, N′-(3-fluorophenyl)-1-(2-morpholinoethyl)-6-oxo-1,6-dihydropyridine-3-carbohydrazide] yielded an MIC80 of 0.56 µg/mL (≈ 1.55 µM).
As for `O=C(NNc1ccc(F)cc1)c1ccc(=O)n(CCN2CCOCC2)c1` [Example 74, N′-(4-fluorophenyl)-1-(2-morpholinoethyl)-6-oxo-1,6-dihydropyridine-3-carbohydrazide], the MIC80 worked out at 0.56 µg/mL (≈ 1.55 µM).
Same read-out and setting: to `CN(C)C(=O)Cn1cc(C(=O)NNc2cccc(F)c2)ccc1=O` [Example 75, 2-(5-(2-(3-fluorophenyl)hydrazine-1-carbonyl)-2-oxopyridine-1(2H)-yl)-N,N-dimethylacetamide] belongs 0.26 µg/mL (≈ 0.782 µM); to `COCCn1cc(C(=O)NNc2cccc(F)c2)ccc1=O` [Example 76, N′-(3-fluorophenyl)-1-(2-methoxyethyl)-6-oxo-1,6-dihydropyridine-3-carbohydrazide], 0.12 µg/mL (≈ 0.393 µM); to `CN(C)C(=O)Cn1cc(C(=O)NNc2ccc(F)cc2)ccc1=O` [Example 77, 2-(5-(2-(4-fluorophenyl)hydrazinecarbonyl)-2-oxopyridine-1(2H)-yl)-N,N-dimethylacetamide], 1.04 µg/mL (≈ 3.13 µM).
`COCCn1cc(C(=O)NNc2ccc(F)cc2)ccc1=O` [Example 78, N′-(4-fluorophenyl)-1-(2-methoxyethyl)-6-oxo-1,6-dihydropyridine-3-carbohydrazide] yielded an MIC80 of 0.24 µg/mL (≈ 0.786 µM).
For `O=C1NNc2cc(F)ccc2C(=O)OCC/C=C/Cn2cc1ccc2=O` [Example 79, (1^5E,10E)-5^5-fluoro-1^1,1^2-dihydro-7-oxa-3,4-diaza-1(5,1)-pyridina-5(1,2)-benzenacyclododecaphan-10-ene-1^2,2,6-trione], the MIC80 came out at 8.93 µg/mL (≈ 25 µM).
Same read-out and setting: to `O=C1NNc2ccccc2OCC/C=C/Cn2cc1ccc2=O` [Example 81, (1^5E,9E)-1^1,1^2-dihydro-6-oxa-3,4-diaza-1(5,1)-pyridina-5(1,2)-benzenacycloundecaphan-9-ene-1^2,2-dione] belongs 1.95 µg/mL (≈ 6.26 µM).

The subject of the next assay is Aspergillus fumigatus. Kind of assay: In vitro antifungal activity test (MIC), Aspergillus fumigatus. In kind it is cell-based. To be noted: Aspergillus fumigatus; concentration at which growth is inhibited by 50% vs negative control; 35° C., 48 hours, RPMI 1640, alama blue. As to the method: as §1
As a reminder, the MIC50 is the lowest concentration that inhibits either 50% of growth or 50% of the strains tested, depending on the study. For the molecule `Cn1cc(C(=O)NNc2ccccc2F)ccc1=O` [Example 1, N′-(2-fluorophenyl)-1-methyl-6-oxo-1,6-dihydropyridine-3-carbohydrazide], the MIC50 stood at 0.1 µg/mL (≈ 0.383 µM).
The molecule `Cn1cc(C(=O)NNc2ccc(S(=O)(=O)C(F)(F)F)cc2)ccc1=O` [Example 10, 1-methyl-6-oxo-N′-(4-((trifluoromethyl)sulfonyl)phenyl)-1,6-dihydropyridine-3-carbohydrazide] gave an MIC50 of 0.1 µg/mL (≈ 0.266 µM).

These data come from patent publication US9617216B2, “Antifungal oxodihydropyridinecarbohydrazide derivative” (Daewoong Pharmaceutical Co., Ltd., priority 2013, dated 2017).
